In patent EP0942906B1, “COMPOUNDS USEFUL FOR INHIBITION OF FARNESYL PROTEIN TRANSFERASE” (SCHERING CORPORATION, priority 1996, dated 1998):
Read-outs that look alike come from different tables or passages of the source.

Experiments:
Conditions in all cases: range stated for the listed group of compounds
[1] = test system: Human tumor cells; assay: Soft Agar Assay (anchorage-independent growth, colony count after MTT staining); assay type: cell-based
Procedure: Anchorage-independent growth is a characteristic of tumorigenic cell lines. Human tumor cells are suspended in growth medium containing 0.3% agarose and an indicated concentration of a farnesyl transferase inhibitor. The solution is overlayed onto growth medium solidified with 0.6% agarose containing the same concentration of farnesyl transferase inhibitor as the top layer. After the top layer is solidified, plates are incubated for 10-16 days at 37°C under 5% CO2 to allow colony outgrowth. After incubation, the colonies are stained by overlaying the agar with a solution of MTT (3-[4,5-dimethylthiazol-2-yl]-2.5-diphenyltetrazolium bromide, Thiazolyl blue) (1 mg/mL in PBS). Colonies can be counted and the IC50's can be determined.

[2] = test system: COS Cell; assay: COS Cell IC50 (Cell-Based Assay, procedure of WO 95/10516)
Procedure: (§1) FPT IC50 (inhibition of farnesyl protein transferase, in vitro enzyme assay) and COS Cell IC50 (Cell-Based Assay) were determined following the assay procedures described in WO 95/10516, published April 20, 1995. GGPT IC50 (inhibition of geranylgeranyl protein transferase, in vitro enzyme assay), Cell Mat Assay, and anti-tumor activity (in vivo anti-tumor studies) could be determined by the assay procedures described in WO 95/10516.

[3] = biological target: farnesyl protein transferase (Homo sapiens, UniProt P49354+P49356); assay: FPT IC50, inhibition of farnesyl protein transferase, in vitro enzyme assay (procedure of WO 95/10516); assay type: biochemical
Chain of farnesyl protein transferase (P49356 whole entry, one chain of several): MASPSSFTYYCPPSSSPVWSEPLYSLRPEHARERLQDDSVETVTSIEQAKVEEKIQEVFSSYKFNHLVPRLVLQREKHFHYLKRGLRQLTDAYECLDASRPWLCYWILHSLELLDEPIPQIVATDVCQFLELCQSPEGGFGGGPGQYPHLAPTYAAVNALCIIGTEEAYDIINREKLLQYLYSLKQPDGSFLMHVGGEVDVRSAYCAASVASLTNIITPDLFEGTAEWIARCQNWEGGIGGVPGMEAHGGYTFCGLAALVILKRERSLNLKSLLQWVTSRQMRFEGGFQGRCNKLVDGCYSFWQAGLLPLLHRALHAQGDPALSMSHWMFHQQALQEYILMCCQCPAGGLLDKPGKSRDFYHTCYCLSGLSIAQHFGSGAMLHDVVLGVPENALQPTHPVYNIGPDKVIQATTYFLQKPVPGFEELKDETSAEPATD
Procedure: as §1

[4] = ras form not stated, read-out: FPT IC50
[5] = H-ras, read-out: FPT IC50 (H-ras)
[6] = k-ras, read-out: FPT IC50 (k-ras)

SMILES	IC50 [1] [nM]	IC50 ([2]; read-out: Cos Cell) [nM]	IC50 [3, 4] [nM]	IC50 ([2]; read-out: Cos Cell IC50) [nM]	IC50 [3, 5] [nM]	IC50 [3, 6] [nM]
O=C(O)c1cccn1CC(=O)N1CCC(CC(=O)N2CCC([C@H]3c4ncc(Br)cc4CCc4cc(Cl)cc(Br)c43)CC2)CC1 [Compound 52.0-B]	≥ 19.5	≥ 9	0.7 to 18			
O=C(CON=Cc1ccccc1O)N1CCC(CC(=O)N2CCC(C3c4ncc(Br)cc4CCc4cc(Cl)cc(Br)c43)CC2)CC1 (stereo not shown) [Compound 95.0-B]	≥ 19.5	≥ 9	0.7 to 18			
O=C1NC(=O)C(CC(=O)N2CCC(CC(=O)N3CCC([C@H]4c5ncc(Br)cc5CCc5cc(Cl)cc(Br)c54)CC3)CC2)N1 (stereo partly shown) [Compound 77.0-B]	≥ 19.5	≥ 9	0.7 to 18			
O=C(O)CCCCC(=O)N1CCC(CC(=O)N2CCC([C@H]3c4ncc(Br)cc4CCc4cc(Cl)cc(Br)c43)CC2)CC1 [Compound 107.0-B]	≥ 19.5	≥ 9	0.7 to 18			
CCOC(=O)c1ncn(CC(=O)N2CCC(CC(=O)N3CCC([C@H]4c5ncc(Br)cc5CCc5cc(Cl)cc(Br)c54)CC3)CC2)c1C [Compound 54.0-B]	≥ 19.5	≥ 9	0.7 to 18			
COC(=O)CCCCCC(=O)N1CCC(CC(=O)N2CCC([C@H]3c4ncc(Br)cc4CCc4cc(Cl)cc(Br)c43)CC2)CC1 [Compound 68.0-B]	≥ 19.5	≥ 9	0.7 to 18			
O=C(CC1CCN(C(=O)CN2CCCCC2)CC1)N1CCC([C@H]2c3ncc(Br)cc3CCc3cc(Cl)cc(Br)c32)CC1 [Compound 75.0-B]	≥ 19.5	≥ 9	0.7 to 18			
O=C(OCc1ccccc1)c1cccn1CC(=O)N1CCC(CC(=O)N2CCC([C@H]3c4ncc(Br)cc4CCc4cc(Cl)cc(Br)c43)CC2)CC1 [Compound 55.0-B]	≥ 19.5	≥ 9	0.7 to 18			
CN(C)CC(=O)N1CCC(CC(=O)N2CCC(C3c4ncc(Br)cc4CCc4cc(Cl)cc(Br)c43)CC2)CC1 (single isomer, unassigned; (+)) [Compound 12.1]	≥ 19.5			10 to 700	2 to 31.7	14.5 to 71.2
CC(C)(C)OC(=O)N1C[C@H](O)C[C@H]1C(=O)N1CCC(CC(=O)N2CCC([C@H]3c4ncc(Br)cc4CCc4cc(Cl)cc(Br)c43)CC2)CC1 [Compound 24.0-B]	≥ 19.5	≥ 9	0.7 to 18			
O=C(O)CC(=O)N1CCC(CC(=O)N2CCC([C@H]3c4ncc(Br)cc4CCc4cc(Cl)cc(Br)c43)CC2)CC1 [Compound 14.0-B]	≥ 19.5	≥ 9	0.7 to 18			
O=C(CC1CCN(C(=O)CC2COCCO2)CC1)N1CCC([C@H]2c3ncc(Br)cc3CCc3cc(Cl)cc(Br)c32)CC1 (stereo partly shown) [Compound 114.2-B]	≥ 19.5	≥ 9	0.7 to 18			
O=C(Cc1cccs1)N1CCC(CC(=O)N2CCC([C@H]3c4ncc(Br)cc4CCc4cc(Cl)cc(Br)c43)CC2)CC1 [Compound 82.0-B]	≥ 19.5	≥ 9	0.7 to 18			
COC(=O)CCCCC(=O)N1CCC(CC(=O)N2CCC([C@H]3c4ncc(Br)cc4CCc4cc(Cl)cc(Br)c43)CC2)CC1 [Compound 101.0-B]	≥ 19.5	≥ 9	0.7 to 18			
CC(C)=NOCC(=O)N1CCC(CC(=O)N2CCC([C@H]3c4ncc(Br)cc4CCc4cc(Cl)cc(Br)c43)CC2)CC1 [Compound 9.0-B]	≥ 19.5	≥ 9	0.7 to 18			14.5 to 71.2
CN(C)C(=O)C(=O)N1CCC(CC(=O)N2CCC([C@H]3c4ncc(Br)cc4CCc4cc(Cl)cc(Br)c43)CC2)CC1 [Compound 33.0-B]	≥ 19.5	≥ 9	0.7 to 18			
NCCC(=O)N1CCC(CC(=O)N2CCC([C@H]3c4ncc(Br)cc4CCc4cc(Cl)cc(Br)c43)CC2)CC1 [Compound 88.0-B]	≥ 19.5	≥ 9	0.7 to 18			
O=C(O)C[C@H](O)CC(=O)N1CCC(CC(=O)N2CCC([C@H]3c4ncc(Br)cc4CCc4cc(Cl)cc(Br)c43)CC2)CC1 [Compound 74.0-B]	≥ 19.5	≥ 9	0.7 to 18			
O=C(CC1CCN(C(=O)[C@@H]2CCCN2)CC1)N1CCC([C@H]2c3ncc(Br)cc3CCc3cc(Cl)cc(Br)c32)CC1 [Compound 10.0]	≥ 19.5			10 to 700	2 to 31.7	14.5 to 71.2
O=C(CC1CCN(C(=O)Cn2cnc3ccccc32)CC1)N1CCC([C@H]2c3ncc(Br)cc3CCc3cc(Cl)cc(Br)c32)CC1 [Compound 12.0-B]	≥ 19.5	≥ 9	0.7 to 18			14.5 to 71.2
